Experimental data from patent publication US9995731B2, “Construction of mitochondrial UQCRB mutant expressing cells and utilization of the cells for UQCRB assay system thereof” (INDUSTRY-ACADEMIC COOPERATION FOUNDATION, YONSEI UNIVERSITY, priority 2014, dated 2018).

Key:
Type in all cases: cell-based, human
[1] = system: UQCRB mutant stable cell line MT1; assay: Cell proliferation assay (MTT colorimetric), UQCRB mutant stable cell line MT1; settings: MT1 cells, terpestacin 50 μM, with or without terpestacin for 3 days
From the text: (§1) FIG. 4A-4F Pro-angiogenic activity of UQCRB mutant stable cell lines and its regulation by UQCRB inhibitors. (4A) Pro-angiogenic activity of a UQCRB mutant through conditioned media (CM)-induced invasion of HUVECs. (4B) Effect of a UQCRB mutation on cell migration; black lines indicate the edge of the gap. (4C) Optical density levels of the colony formation assay by using UQCRB mutant stable cell lines or controls. (4D, 4E) Growth of the UQCRB mutant stable cell lines regulated by the UQCRB inhibitors terpestacin (T) and A1938 (A). Cells were treated with terpestacin (50 μM) or A1938 (10 μM) in a time-dependent manner. Cell growth was measured by the MTT colorimetric assay. (4F) Suppression of elevated mROS by terpestacin in UQCRB MT1 cells. mROS were measured using MitoSOX™. Terpestacin (20 μM) was applied to UQCRB MT1 cells for 1 h; scale bars indicate 20 μm. […]
(§2) Control and mutant stable cell lines were seeded onto 96-well plates and incubated for 24-72 h. Proliferation of the cells was measured using a 3-(4,5-dimethylthiazol-2-yl)-2,5-diphenyltetrazolium bromide (MTT; Sigma-Aldrich, Saint Louis, Mo.) colorimetric assay.
(§3) Since UQCRB is a molecular target of the natural compound terpestacin [6], we examined the effect of terpestacin on UQCRB mutant stable cell lines. To test whether terpestacin affects MT1 and MT2, cell growth was measured with or without terpestacin for 3 days. […]

[2] = system: UQCRB mutant stable cell line MT2; assay: Cell proliferation assay (MTT colorimetric), UQCRB mutant stable cell line MT2; settings: MT2 cells, terpestacin 50 μM, with or without terpestacin for 3 days
From the text: as §1, §2, §3

Control (HEK293) cells = assay: Cell proliferation assay (MTT colorimetric), control cells; settings: terpestacin 50 μM, 3 days
From the text: as §1, §2, §3

UQCRB MT1 cells = assay: Measurement of mROS levels with MitoSOX in UQCRB MT1 cells; settings: terpestacin 20 μM for 1 h
From the text: as §1, with “MitoSOX™.” for “MitoSOX™. Terpestacin (20 μM) was applied to UQCRB MT1 cells for 1 h; scale bars indicate 20 μm.”
mROS levels were assessed by the red fluorescence mitochondrial superoxide indicator MitoSOX™ (Invitrogen, Grand Island, N.Y.). […] Results of MitoSOX™ and Hoechst staining were analyzed under a confocal microscope (Zeiss LSM 710; Carl Zeiss Microlmaging, Thornwood, N.Y.), and the fluorescence intensity of MitoSOX™ was measured by ImageJ.
as §3

With `C/C1=C\C[C@]2(C)C(=O)C(O)=C([C@H](C)CO)[C@H]2C/C=C(\C)[C@@H](O)CC/C(C)=C/CC1` [terpestacin] the “effect on proliferation (cell growth, MTT)” value (shortened to “effect on proliferation”) [1] was “remarkably inhibited proliferation”, the “effect on proliferation” value [2] was “remarkably inhibited proliferation” and the “effect on proliferation” value (Control (HEK293) cells) was “did not affect the proliferation”. For the same molecule, the “effect on elevated mROS (MitoSOX fluorescence)” value (UQCRB MT1 cells) was “attenuated mROS induction in MT1 to a basal level”.
